Active and inactive are the calls of the source. The calls are words filed in the database; no cut-off is given here.
Experiments:
[1] = molecular target: Cyclin-Y/Cyclin-dependent kinase 16 (Homo sapiens) (UniProt Q00536+Q8ND76); assay: Inhibition of human recombinant N-terminal GST-tagged CDK16/N-terminal GST-tagged Cyclin Y expressed in HEP Sf9 cells using ATP as substrate at 2 uM measured after 60 mins by ADP-Glo reagent based luminescence analysis
[2] = molecular target: CDK7/Cyclin H/MNAT1 (Homo sapiens) (UniProt P51946+P50613+P51948); assay: Inhibition of human recombinant N-terminal 6X His-tagged CDK7/CCNH/N-terminal 6X His-tagged MNAT1 expressed in HEP Sf9 cells using ATP as substrate at 2 uM measured after 60 mins by ADP-Glo reagent based luminescence assay
[3] = molecular target: Cyclin-dependent kinase 12/13 (Homo sapiens) (UniProt Q14004+Q9NYV4); assay: Covalent inhibition of CDK12/13 in human SUM149PT cells assessed as reduction in level of phosphorylation of Ser2 on RNA Pol II CTD at 500 nM incubated for 12 hrs followed by drug wash-out and measured after 72 hrs by western blot analysis; assay type: cell-based
[4] = molecular target: CDK6/cyclin D1 (Homo sapiens) (UniProt P24385+Q00534); assay: Inhibition of human recombinant N-terminal GST-tagged CDK6/N-terminal GST-tagged and C-terminal 6X His-tagged Cyclin D1 expressed in HEP Sf9 cells using ATP as substrate at 2 uM measured after 60 mins by ADP-Glo reagent based luminescence analysis
Caco-2 = assay: Antiproliferative activity against human Caco-2 cells assessed as reduction in cell viability incubated for 7 days by CellTiter-Glo reagent based luminescence analysis; assay type: functional; settings: Caco-2, 168 h
[5] = Half-life in Balb/c mouse xenografted with human MV4-11 cells at 30 mg/kg, po administered once daily via gavage; assay type: ADME, organism-based; settings: in vivo
[6] = Toxicity against female Sprague-Dawley rat assessed as effect on red blood cells level at 7.5 to 30 mg/kg, po administered once daily via gavage for 28 days and measured on day 29; assay type: organism-based; settings: in vivo, 696 h, dose 7.5-30 mg/kg, time 29 day
[7] = Toxicity against male Sprague-Dawley rat assessed as effect on blood urea nitrogen level at 10 to 40 mg/kg, po administered once daily via gavage for 28 days and measured on day 29; assay type: organism-based; settings: in vivo, 696 h, dose 10-40 mg/kg, time 29 day
[8] = molecular target: Mitogen-activated protein kinase 8 (Homo sapiens) (UniProt P45983); assay: Inhibition of JNK1 (unknown origin) at 5 uM by DiscoverX KinomeScan ScanMAX analysis
[9] = molecular target: CDK12/Cyclin K (Homo sapiens) (UniProt O75909+Q9NYV4); assay: Irreversible covalent binding affinity to CDK12/CyclinK (unknown origin) at Cys1039 residue assessed as 1:1 complex formation at 5 uM measured after 3 hrs by peptide mapping based mass spectrometric analysis; assay type: protein-complex assay
[10] = Toxicity against female Sprague-Dawley rat assessed as effect on body weight at 7.5 to 15 mg/kg, po administered once daily via gavage for 28 days and measured twice a week; assay type: organism-based; settings: in vivo, 672 h, dose 7.5-15 mg/kg, time 28 day
[11] = Toxicity against male Sprague-Dawley rat assessed as increase in neutrophils content at 10 to 40 mg/kg, po administered once daily via gavage for 28 days and measured on day 29; assay type: organism-based; settings: in vivo, 696 h, dose 10-40 mg/kg, time 29 day
OCI-AML-3 = assay: Antiproliferative activity against human OCI-AML-3 cells assessed as reduction in cell viability incubated for 7 days by CellTiter-Glo reagent based luminescence analysis; assay type: functional; settings: OCI-AML-3, 168 h
[12] = Cmax in male Sprague-Dawley rat at 40 mg/kg, po administered once daily via gavage for 28 days; assay type: ADME, organism-based; settings: in vivo, time 28 day
[13] = Toxicity against male Sprague-Dawley rat assessed as body weight loss at 40 mg/kg, po administered once daily via gavage for 28 days and measured twice a week; assay type: organism-based; settings: in vivo, 672 h, time 28 day
[14] = AUC(0 to t) in female Sprague-Dawley rat at 30 mg/kg, po administered via gavage and measured on day 1; assay type: ADME, organism-based; settings: in vivo, 24 h, time 1 day
[15] = Cmax in female Sprague-Dawley rat at 15 mg/kg, po administered once daily via gavage for 28 days; assay type: ADME, organism-based; settings: in vivo, time 28 day
[16] = Toxicity against male Sprague-Dawley rat assessed as effect on mean corpuscular volume at 10 to 40 mg/kg, po administered once daily via gavage for 28 days and measured on day 29; assay type: organism-based; settings: in vivo, 696 h, dose 10-40 mg/kg, time 29 day
[17] = Cmax in Sprague-Dawley rat at 150 mg/kg, po measured for 24 hrs by LC-MS/MS analysis; assay type: ADME, organism-based; settings: in vivo
[18] = molecular target: Cyclin-dependent kinase 13/Cyclin-K (Homo sapiens) (UniProt Q14004+O75909); assay: Inhibition of human recombinant N-terminal GST-tagged CDK13/N-terminal FLAG and C-terminal His-tagged Cyclin K expressed in HEP Sf9 cells using ATP as substrate at 2 uM measured after 60 mins by ADP-Glo reagent based luminescence assay
[19] = Half life in female Sprague-Dawley rat at 30 mg/kg, po administered once daily via gavage for 28 days; assay type: ADME, organism-based; settings: in vivo, time 28 day
[20] = Toxicity against male Sprague-Dawley rat assessed as decrease in thymus weight at 10 to 40 mg/kg, po administered once daily via gavage for 28 days and measured on day 29; assay type: organism-based; settings: in vivo, 696 h, dose 10-40 mg/kg, time 29 day
MV4-11 = assay: Antiproliferative activity against human MV4-11 cells assessed as reduction in cell viability incubated for 7 days by CellTiter-Glo reagent based luminescence analysis; assay type: functional; settings: MV4-11, 168 h
[21] = molecular target: CDK9/cyclin T1 (Homo sapiens) (UniProt O60563+P50750); assay: Inhibition of human recombinant N-terminal GST-tagged CDK9/N-terminal GST-tagged and C-terminal 8X His-tagged Cyclin T1 expressed in HEP Sf9 cells using ATP as substrate at 2 uM measured after 60 mins by ADP-Glo reagent based luminescence assay
[22] = molecular target: Cyclin-dependent kinase 2/cyclin E1 (Homo sapiens) (UniProt P24864+P24941); assay: Inhibition of human recombinant N-terminal GST-tagged CDK2/N-terminal GST-tagged Cyclin E1 expressed in HEP Sf9 cells using ATP as substrate at 2 uM measured after 60 mins by ADP-Glo reagent based luminescence analysis
[23] = molecular target: Mitogen-activated protein kinase 10 (Homo sapiens) (UniProt P53779); assay: Inhibition of JNK3 (unknown origin) at 5 uM by DiscoverX KinomeScan ScanMAX analysis
SUM149PT = assay: Antitumor activity against human SUM149PT cells xenografted in Balb/c mouse assessed as inhibition of tumor growth at 60 mg/kg, po administered once daily via gavage and measured on day 20; assay type: functional; settings: 480 h, time 20 day, read-out: TGI
CDK9/cyclin T1 = CDK9/cyclin T1 (Homo sapiens, UniProt P50750); assay: Inhibition of human recombinant N-terminal GST-tagged CDK9/N-terminal GST-tagged and C-terminal 8X His-tagged Cyclin T1 expressed in HEP Sf9 cells using ATP as substrate measured after 60 mins by ADP-Glo reagent based luminescence assay
[24] = Toxicity against male Sprague-Dawley rat assessed as effect on sodium level in blood at 10 to 40 mg/kg, po administered once daily via gavage for 28 days and measured on day 29; assay type: organism-based; settings: in vivo, 696 h, dose 10-40 mg/kg, time 29 day

Chain of CDK12/Cyclin K (Homo sapiens) (O75909 whole entry, looked up): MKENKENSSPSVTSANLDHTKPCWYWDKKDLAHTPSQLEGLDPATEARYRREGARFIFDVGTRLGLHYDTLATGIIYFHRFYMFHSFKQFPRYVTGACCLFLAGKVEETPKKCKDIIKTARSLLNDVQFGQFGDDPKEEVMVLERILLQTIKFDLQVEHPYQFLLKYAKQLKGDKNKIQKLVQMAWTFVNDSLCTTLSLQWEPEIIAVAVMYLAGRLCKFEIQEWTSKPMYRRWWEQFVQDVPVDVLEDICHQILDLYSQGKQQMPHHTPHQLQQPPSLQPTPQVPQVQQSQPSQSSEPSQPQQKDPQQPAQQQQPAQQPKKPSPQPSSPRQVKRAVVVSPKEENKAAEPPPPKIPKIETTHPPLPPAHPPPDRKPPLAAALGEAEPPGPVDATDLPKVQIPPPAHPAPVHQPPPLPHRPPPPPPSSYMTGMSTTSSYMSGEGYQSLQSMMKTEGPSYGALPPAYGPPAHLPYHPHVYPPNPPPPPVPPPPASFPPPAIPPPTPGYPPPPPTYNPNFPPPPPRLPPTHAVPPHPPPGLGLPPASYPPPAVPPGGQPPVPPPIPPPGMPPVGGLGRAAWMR
Chain of CDK12/Cyclin K (Homo sapiens) (Q9NYV4 whole entry, looked up): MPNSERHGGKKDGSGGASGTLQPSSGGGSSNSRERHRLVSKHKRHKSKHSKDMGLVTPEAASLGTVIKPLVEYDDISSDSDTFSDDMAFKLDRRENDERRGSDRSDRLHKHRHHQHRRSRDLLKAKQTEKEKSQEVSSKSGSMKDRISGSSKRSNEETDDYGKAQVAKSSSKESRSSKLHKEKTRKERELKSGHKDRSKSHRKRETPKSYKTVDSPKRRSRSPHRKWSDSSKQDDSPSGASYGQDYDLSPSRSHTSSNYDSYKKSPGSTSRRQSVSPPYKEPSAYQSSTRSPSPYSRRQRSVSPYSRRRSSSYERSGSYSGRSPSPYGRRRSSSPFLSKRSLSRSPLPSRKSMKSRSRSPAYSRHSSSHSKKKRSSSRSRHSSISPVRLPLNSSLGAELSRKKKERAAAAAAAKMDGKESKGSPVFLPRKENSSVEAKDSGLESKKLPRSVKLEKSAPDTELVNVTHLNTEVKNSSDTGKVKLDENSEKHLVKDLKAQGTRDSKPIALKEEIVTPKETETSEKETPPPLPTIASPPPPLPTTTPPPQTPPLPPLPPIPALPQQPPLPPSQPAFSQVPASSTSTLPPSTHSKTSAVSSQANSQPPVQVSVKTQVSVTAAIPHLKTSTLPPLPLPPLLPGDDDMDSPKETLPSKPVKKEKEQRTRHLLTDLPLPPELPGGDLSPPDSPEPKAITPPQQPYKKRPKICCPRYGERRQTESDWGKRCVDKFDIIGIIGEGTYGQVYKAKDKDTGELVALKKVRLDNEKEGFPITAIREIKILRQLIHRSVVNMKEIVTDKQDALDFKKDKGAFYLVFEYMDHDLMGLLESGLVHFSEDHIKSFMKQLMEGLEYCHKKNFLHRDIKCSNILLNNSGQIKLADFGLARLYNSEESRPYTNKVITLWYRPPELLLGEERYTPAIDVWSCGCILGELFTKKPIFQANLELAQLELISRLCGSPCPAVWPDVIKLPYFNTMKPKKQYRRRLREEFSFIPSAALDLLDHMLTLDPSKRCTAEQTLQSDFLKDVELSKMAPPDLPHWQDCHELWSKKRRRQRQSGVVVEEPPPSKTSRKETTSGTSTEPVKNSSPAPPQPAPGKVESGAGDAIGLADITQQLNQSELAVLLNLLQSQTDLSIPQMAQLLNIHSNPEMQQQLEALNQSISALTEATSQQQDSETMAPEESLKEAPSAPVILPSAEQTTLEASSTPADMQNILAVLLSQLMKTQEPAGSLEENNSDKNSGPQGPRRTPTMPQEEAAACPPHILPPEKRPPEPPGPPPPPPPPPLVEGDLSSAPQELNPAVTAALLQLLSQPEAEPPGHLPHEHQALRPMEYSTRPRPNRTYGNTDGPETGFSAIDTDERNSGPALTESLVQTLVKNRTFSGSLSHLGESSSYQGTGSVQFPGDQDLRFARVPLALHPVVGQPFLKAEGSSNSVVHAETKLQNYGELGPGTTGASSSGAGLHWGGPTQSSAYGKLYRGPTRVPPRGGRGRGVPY
Chain of Cyclin-dependent kinase 13/Cyclin-K (Homo sapiens) (O75909 whole entry, looked up): as the sequence (O75909 whole entry, looked up) above
Chain of Cyclin-dependent kinase 13/Cyclin-K (Homo sapiens) (Q14004 whole entry, looked up): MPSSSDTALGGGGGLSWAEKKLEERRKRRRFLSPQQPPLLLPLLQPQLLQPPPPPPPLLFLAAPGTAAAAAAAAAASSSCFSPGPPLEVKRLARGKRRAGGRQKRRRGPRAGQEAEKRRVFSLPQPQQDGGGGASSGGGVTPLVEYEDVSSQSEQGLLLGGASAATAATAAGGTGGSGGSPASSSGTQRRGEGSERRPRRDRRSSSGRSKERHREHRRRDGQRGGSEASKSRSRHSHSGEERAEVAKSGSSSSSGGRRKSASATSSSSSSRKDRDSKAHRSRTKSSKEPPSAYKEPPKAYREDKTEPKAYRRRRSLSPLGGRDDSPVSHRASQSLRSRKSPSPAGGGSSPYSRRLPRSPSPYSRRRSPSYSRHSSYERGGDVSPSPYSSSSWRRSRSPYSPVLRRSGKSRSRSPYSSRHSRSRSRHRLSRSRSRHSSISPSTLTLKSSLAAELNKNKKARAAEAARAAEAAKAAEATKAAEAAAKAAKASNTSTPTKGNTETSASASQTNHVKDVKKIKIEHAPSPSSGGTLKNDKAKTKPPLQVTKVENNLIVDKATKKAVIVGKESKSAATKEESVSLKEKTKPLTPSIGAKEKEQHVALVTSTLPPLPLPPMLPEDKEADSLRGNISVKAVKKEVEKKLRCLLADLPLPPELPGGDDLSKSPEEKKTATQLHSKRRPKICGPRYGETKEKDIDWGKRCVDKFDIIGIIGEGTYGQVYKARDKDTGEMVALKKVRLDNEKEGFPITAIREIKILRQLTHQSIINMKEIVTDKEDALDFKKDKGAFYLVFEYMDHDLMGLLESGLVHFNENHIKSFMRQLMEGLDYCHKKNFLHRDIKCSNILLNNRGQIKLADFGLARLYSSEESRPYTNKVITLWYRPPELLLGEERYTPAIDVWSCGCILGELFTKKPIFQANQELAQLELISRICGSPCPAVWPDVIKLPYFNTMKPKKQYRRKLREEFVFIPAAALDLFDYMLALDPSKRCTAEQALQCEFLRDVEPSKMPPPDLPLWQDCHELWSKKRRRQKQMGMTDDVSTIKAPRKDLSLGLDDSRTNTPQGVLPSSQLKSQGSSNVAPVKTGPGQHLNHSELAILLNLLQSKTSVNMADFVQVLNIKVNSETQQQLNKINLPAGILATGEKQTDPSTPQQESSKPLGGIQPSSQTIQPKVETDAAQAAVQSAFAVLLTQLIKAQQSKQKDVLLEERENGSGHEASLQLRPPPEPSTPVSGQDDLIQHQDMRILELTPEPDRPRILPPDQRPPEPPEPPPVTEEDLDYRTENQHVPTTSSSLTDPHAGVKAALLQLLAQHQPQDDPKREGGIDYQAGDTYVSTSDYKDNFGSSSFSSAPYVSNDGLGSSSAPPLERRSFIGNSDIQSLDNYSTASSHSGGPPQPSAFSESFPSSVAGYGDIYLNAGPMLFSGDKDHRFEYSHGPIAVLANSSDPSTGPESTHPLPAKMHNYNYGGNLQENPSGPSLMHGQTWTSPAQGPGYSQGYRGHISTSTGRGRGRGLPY
Chain of Mitogen-activated protein kinase 8 (Homo sapiens) (P45983 whole entry): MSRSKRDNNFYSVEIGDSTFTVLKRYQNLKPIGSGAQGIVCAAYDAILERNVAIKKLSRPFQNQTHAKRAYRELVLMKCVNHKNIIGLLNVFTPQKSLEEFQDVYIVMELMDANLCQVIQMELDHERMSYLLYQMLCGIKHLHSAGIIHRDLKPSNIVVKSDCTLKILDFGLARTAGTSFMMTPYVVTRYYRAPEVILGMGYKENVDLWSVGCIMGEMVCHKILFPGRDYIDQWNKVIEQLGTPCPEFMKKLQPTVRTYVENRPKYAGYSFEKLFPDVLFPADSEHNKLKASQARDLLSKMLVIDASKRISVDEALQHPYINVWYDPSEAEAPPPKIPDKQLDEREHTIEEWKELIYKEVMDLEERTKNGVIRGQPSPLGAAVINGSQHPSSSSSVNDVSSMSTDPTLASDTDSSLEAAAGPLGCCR
Chain of Mitogen-activated protein kinase 10 (Homo sapiens) (P53779 whole entry): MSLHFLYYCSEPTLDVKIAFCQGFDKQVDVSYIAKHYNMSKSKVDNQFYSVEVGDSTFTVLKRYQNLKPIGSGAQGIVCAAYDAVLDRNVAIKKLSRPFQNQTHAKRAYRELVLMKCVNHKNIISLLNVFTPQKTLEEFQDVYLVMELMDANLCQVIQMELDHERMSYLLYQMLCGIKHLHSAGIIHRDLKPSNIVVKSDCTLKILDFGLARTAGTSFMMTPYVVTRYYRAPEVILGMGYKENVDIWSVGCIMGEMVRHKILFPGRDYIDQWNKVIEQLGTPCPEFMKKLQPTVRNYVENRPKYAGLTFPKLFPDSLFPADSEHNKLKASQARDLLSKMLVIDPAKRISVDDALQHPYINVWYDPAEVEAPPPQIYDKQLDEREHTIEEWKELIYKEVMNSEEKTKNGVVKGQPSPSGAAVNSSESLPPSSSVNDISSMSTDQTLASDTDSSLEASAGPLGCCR

For `C=CC(=O)N1CCc2c(ncnc2N2CC[C@@H](Nc3ncc(Cl)c(OC)n3)C2)C1`, the inhibition [1] was 64%, the inhibition [2] was 94% and the inhibition [3] was “Active”. The inhibition [4] was 56%, the IC50 (Caco-2) was 122 nM and the half-life [5] was 1.17 h. The Activity [6] was “Non-toxic”, the Activity [7] was “Non-toxic” and the inhibition [8] was “Active”. For the same compound, the Activity [9] was “Active”, the Activity [10] was “Non-toxic” and the Activity [11] was “Toxic”. For the same compound, the IC50 (OCI-AML-3) was 137 nM, the Cmax [12] was 2410 ng/mL and the Activity [13] was “Toxic”. The AUCt [14] was 9090 ng·h/mL, the Cmax [15] was 1800 ng/mL and the Activity [16] was “Non-toxic”. For the same compound, the Cmax [17] was 3760 ng/mL, the inhibition [18] was 83% and the half-life [19] was 4.5 h. For the same compound, the Activity [20] was “Toxic”, the IC50 (MV4-11) was 84 nM and the inhibition [21] was 75%. The inhibition [22] was 63%, the inhibition [23] was “Active” and the inhibition in vivo at 60 mg/kg (SUM149PT) was 114%. For the same compound, the IC50 (CDK9/cyclin T1) was 641 nM and the Activity [24] was “Non-toxic”.

Reference: ChEMBL document CHEMBL6153137, “Design, Synthesis, and Biological Evaluation of Novel Orally Available Covalent CDK12/13 Dual Inhibitors for the Treatment of Tumors” (J Med Chem, 2025)
